The source of these data is patent US12559529B2, “NPY2 receptor agonists” (Boehringer Ingelheim International GmbH, priority 2019, dated 2026).

*1 amine or outer side, *2 acyl side, *3 side chain or, on linkers, in order; H or OH if unused. Where a SMILES comes first, the peptide text is derived from it. Side-chain parts run from the residue outwards. The star is where a group is joined. C18 diacid = O=C(O)CCCCCCCCCCCCCCCCC(=O)*; γGlu = O=C(O)[C@H](CCC(=O)[*:2])N[*:1]; Isovaleryl = CC(C)CC(=O)*; AEEA = NCCOCCOCC(=O)O

The assay concerns the target T1, Human Neuropeptide Y2 Receptor (Homo sapiens, UniProt P49146).
T1 construct: purchased CHEMICON HTS066M
T1 sequence (P49146 1-381): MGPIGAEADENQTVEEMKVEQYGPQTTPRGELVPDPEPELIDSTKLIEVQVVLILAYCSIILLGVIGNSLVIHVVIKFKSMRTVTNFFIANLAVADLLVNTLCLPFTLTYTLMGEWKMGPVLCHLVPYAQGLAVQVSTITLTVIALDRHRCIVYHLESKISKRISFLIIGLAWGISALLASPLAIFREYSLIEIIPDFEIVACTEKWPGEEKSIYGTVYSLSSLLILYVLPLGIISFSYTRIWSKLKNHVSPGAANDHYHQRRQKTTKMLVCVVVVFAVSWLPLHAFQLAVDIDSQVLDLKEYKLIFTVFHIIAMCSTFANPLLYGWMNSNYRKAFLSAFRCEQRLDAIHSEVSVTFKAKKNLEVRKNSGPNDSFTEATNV
Put plainly: Radioligand binding competition assay (RLB). The following applies: Table 3; human 125I-PYY (1-36) 0.02 nM, Y2 receptor membranes; read-out: Ki. An outline of the steps: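 Membranes (0.5 μg/well) and test peptides, serially diluted from 1 mM DMSO stocks, were incubated 2 hours at room temperature in HEPES buffer pH 7.4 with Mg, Ca and ovalbumin.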
The term Ki denotes the dissociation constant of the complex between target and ligand, obtained from inhibition or displacement. Turning to `CC(C)CC(=O)N[C@@H](C)C(=O)N1CCC[C@H]1C(=O)N[C@@H](CCC(=O)O)C(=O)N[C@@H](CCCCNC(=O)COCCOCCNC(=O)COCCOCCNC(=O)CC[C@H](NC(=O)CCCCCCCCCCCCCCCCC(=O)O)C(=O)O)C(=O)N[C@@H](C)C(=O)N[C@@H](CCC(=O)O)C(=O)N[C@@H](CCC(=O)O)C(=O)N[C@@H](CC(=O)O)C(=O)N[C@@H](C)C(=O)N[C@@H](CO)C(=O)N1CCC[C@H]1C(=O)N[C@@H](CCC(=O)O)C(=O)N[C@@H](CCC(=O)O)C(=O)N[C@@H](CC(C)C)C(=O)N[C@@H](CCC(=O)O)C(=O)N[C@@H](CCC(N)=O)C(=O)N[C@@H](Cc1ccc(O)cc1)C(=O)N[C@@H](Cc1ccc(O)cc1)C(=O)N[C@H](C(=O)N[C@@H](CO)C(=O)N[C@@H](CC(C)C)C(=O)N[C@@H](CCCNC(=N)N)C(=O)N[C@@H](Cc1c[nH]cn1)C(=O)N[C@@H](Cc1ccc(O)cc1)C(=O)N[C@@H](Cc1ccc(O)cc1)C(=O)N[C@@H](CC(N)=O)C(=O)N[C@@H](Cc1c[nH]c2ccccc12)C(=O)N[C@@H](CC(C)C)C(=O)N[C@H](C(=O)N[C@@H](CCCNC(=N)N)C(=O)N[C@@H](CCC(N)=O)C(=O)N[C@@H](CCCNC(=N)N)C(=O)N[C@@H](Cc1ccc(O)cc1)C(N)=O)[C@@H](C)O)C(C)C` [Compound 227, N{alpha-4}-(3-methylbutanoyl)-N{epsilon-7}-[2-(2-{2-[2-(2-{2-[(4S)-4-carboxy-4-(17-carboxyheptadecanamido)butanamido]ethoxy}ethoxy)acetamido]ethoxy}ethoxy)acetamido]-[4A,7K,8A,9E,18E,19Q,22V,28Y,30W,31L]hPYY (4-36)] (Isovaleryl-APEK([AEEA-AEEA-γGlu-C18 diacid])AEEDASPEELEQYYVSLRHYYNWLTRQRY-NH2), the Ki is 12.3 nM. As for `CC(C)CC(=O)N[C@@H](C)C(=O)N1CCC[C@H]1C(=O)N[C@@H](CCC(=O)O)C(=O)N[C@@H](CCCCNC(=O)COCCOCCNC(=O)COCCOCCNC(=O)CC[C@H](NC(=O)CCCCCCCCCCCCCCCCC(=O)O)C(=O)O)C(=O)N1CCC[C@H]1C(=O)N[C@@H](CCC(=O)O)C(=O)N[C@@H](CCC(=O)O)C(=O)N[C@@H](CC(=O)O)C(=O)N[C@@H](C)C(=O)N[C@@H](CO)C(=O)N1CCC[C@H]1C(=O)N[C@@H](CCC(=O)O)C(=O)N[C@@H](CCC(=O)O)C(=O)N[C@@H](CC(C)C)C(=O)N[C@@H](CCC(N)=O)C(=O)N[C@@H](CCCNC(=N)N)C(=O)N[C@@H](Cc1ccc(O)cc1)C(=O)N[C@@H](Cc1ccc(O)cc1)C(=O)N[C@H](C(=O)N[C@@H](CO)C(=O)N[C@@H](C)C(=O)N[C@@H](CCCNC(=N)N)C(=O)N[C@@H](Cc1c[nH]cn1)C(=O)N[C@@H](Cc1ccc(O)cc1)C(=O)N[C@@H](Cc1ccc(O)cc1)C(=O)N[C@@H](CC(N)=O)C(=O)N[C@@H](Cc1c[nH]c2ccccc12)C(=O)N[C@@H](CC(C)C)C(=O)N[C@H](C(=O)N[C@@H](CCCNC(=N)N)C(=O)N[C@@H](CCC(N)=O)C(=O)N[C@@H](CCCNC(=N)N)C(=O)N[C@@H](Cc1ccc(O)cc1)C(N)=O)[C@@H](C)O)C(C)C` [Compound 229, N{alpha-4}-(3-methylbutanoyl)-N{epsilon-7}-[2-(2-{2-[2-(2-{2-[(4S)-4-carboxy-4-(17-carboxyheptadecanamido)butanamido]ethoxy}ethoxy)acetamido]ethoxy}ethoxy)acetamido]-[4A,7K,9E,18Q,22V,24A,28Y,30W,31L]hPYY (4-36)], the figure is 2.84 nM; as for `CC(C)CC(=O)N[C@@H](C)C(=O)N1CCC[C@H]1C(=O)N[C@@H](C)C(=O)N[C@@H](CCCCNC(=O)COCCOCCNC(=O)COCCOCCNC(=O)CC[C@H](NC(=O)CCCCCCCCCCCCCCCCC(=O)O)C(=O)O)C(=O)N1CCC[C@H]1C(=O)N1CCC[C@H]1C(=O)N[C@@H](CCC(=O)O)C(=O)N[C@@H](CC(=O)O)C(=O)N[C@@H](C)C(=O)N[C@@H](CO)C(=O)N1CCC[C@H]1C(=O)N[C@@H](CCC(=O)O)C(=O)N[C@@H](CCC(=O)O)C(=O)N[C@@H](CC(C)C)C(=O)N[C@@H](CCC(N)=O)C(=O)N[C@@H](CCCNC(=N)N)C(=O)N[C@@H](Cc1ccc(O)cc1)C(=O)N[C@@H](Cc1ccc(O)cc1)C(=O)N[C@H](C(=O)N[C@@H](CCC(=O)O)C(=O)N[C@@H](CC(C)C)C(=O)N[C@@H](CCCNC(=N)N)C(=O)N[C@@H](Cc1c[nH]cn1)C(=O)N[C@@H](Cc1ccc(O)cc1)C(=O)N[C@@H](Cc1ccc(O)cc1)C(=O)N[C@@H](CC(N)=O)C(=O)N[C@@H](Cc1c[nH]c2ccccc12)C(=O)N[C@@H](CC(C)C)C(=O)N[C@H](C(=O)N[C@@H](CCCNC(=N)N)C(=O)N[C@@H](CCC(N)=O)C(=O)N[C@@H](CCCNC(=N)N)C(=O)N[C@@H](Cc1ccc(O)cc1)C(N)=O)[C@@H](C)O)C(C)C` [Compound 232, N{alpha-4}-(3-methylbutanoyl)-N{epsilon-7}-[2-(2-{2-[2-(2-{2-[(4S)-4-carboxy-4-(17-carboxyheptadecanamido)butanamido]ethoxy}ethoxy)acetamido]ethoxy}ethoxy)acetamido]-[4A,6A,7K,9P,18Q,22V,23E,28Y,30W,31L]hPYY (4-36)], 0.81 nM; as for `CC(C)CC(=O)N[C@@H](C)C(=O)N1CCC[C@H]1C(=O)N[C@@H](CCC(=O)O)C(=O)N[C@@H](CCCCNC(=O)COCCOCCNC(=O)COCCOCCNC(=O)CC[C@H](NC(=O)CCCCCCCCCCCCCCCCC(=O)O)C(=O)O)C(=O)N[C@H](C(=O)N[C@@H](CCC(=O)O)C(=O)N[C@@H](CCC(=O)O)C(=O)N[C@@H](CCC(=O)O)C(=O)N[C@@H](C)C(=O)N[C@@H](CO)C(=O)N1CCC[C@H]1C(=O)N[C@@H](CCC(=O)O)C(=O)N[C@@H](CCC(=O)O)C(=O)N[C@@H](CC(C)C)C(=O)N[C@@H](CCC(N)=O)C(=O)N[C@@H](CCCNC(=N)N)C(=O)N[C@@H](Cc1ccc(O)cc1)C(=O)N[C@@H](Cc1ccc(O)cc1)C(=O)N[C@H](C(=O)N[C@@H](CO)C(=O)N[C@@H](CC(C)C)C(=O)N[C@@H](CCCNC(=N)N)C(=O)N[C@@H](Cc1c[nH]cn1)C(=O)N[C@@H](Cc1ccc(O)cc1)C(=O)N[C@@H](Cc1ccc(O)cc1)C(=O)N[C@@H](CC(N)=O)C(=O)N[C@@H](Cc1c[nH]c2ccccc12)C(=O)N[C@@H](CC(C)C)C(=O)N[C@H](C(=O)N[C@@H](CCCNC(=N)N)C(=O)N[C@@H](CCC(N)=O)C(=O)N[C@@H](CCCNC(=N)N)C(=O)N[C@@H](Cc1ccc(O)cc1)C(N)=O)[C@@H](C)O)C(C)C)[C@@H](C)O` [Compound 238, N{alpha-4}-(3-methylbutanoyl)-N{epsilon-7}-[2-(2-{2-[2-(2-{2-[(4S)-4-carboxy-4-(17-carboxyheptadecanamido)butanamido]ethoxy}ethoxy)acetamido]ethoxy}ethoxy)acetamido]-[4A,7K,8T,9E,11E,18Q,22V,28Y,30W,31L]hPYY (4-36)] (Isovaleryl-APEK([AEEA-AEEA-γGlu-C18 diacid])TEEEASPEELQRYYVSLRHYYNWLTRQRY-NH2), 25.1 nM. With `CC(C)CC(=O)N[C@@H](C)C(=O)N1CCC[C@H]1C(=O)N[C@@H](CCC(=O)O)C(=O)N[C@@H](CCCCNC(=O)COCCOCCNC(=O)COCCOCCNC(=O)CC[C@H](NC(=O)CCCCCCCCCCCCCCCCC(=O)O)C(=O)O)C(=O)N1CCC[C@H]1C(=O)N[C@@H](CCC(=O)O)C(=O)N[C@@H](C)C(=O)N[C@@H](CC(=O)O)C(=O)N[C@@H](C)C(=O)N[C@@H](CO)C(=O)N[C@@H](C)C(=O)N[C@@H](CCC(=O)O)C(=O)N[C@@H](CCC(=O)O)C(=O)N[C@@H](CC(C)C)C(=O)N[C@@H](CCC(N)=O)C(=O)N[C@@H](CCCNC(=N)N)C(=O)N[C@@H](Cc1ccc(O)cc1)C(=O)N[C@@H](Cc1ccc(O)cc1)C(=O)N[C@H](C(=O)N[C@@H](CO)C(=O)N[C@@H](CC(C)C)C(=O)N[C@@H](CCCNC(=N)N)C(=O)N[C@@H](Cc1c[nH]cn1)C(=O)N[C@@H](Cc1ccc(O)cc1)C(=O)N[C@@H](Cc1ccc(O)cc1)C(=O)N[C@@H](CC(N)=O)C(=O)N[C@@H](Cc1c[nH]c2ccccc12)C(=O)N[C@@H](CC(C)C)C(=O)N[C@H](C(=O)N[C@@H](CCCNC(=N)N)C(=O)N[C@@H](CCC(N)=O)C(=O)N[C@@H](CCCNC(=N)N)C(=O)N[C@@H](Cc1ccc(O)cc1)C(N)=O)[C@@H](C)O)C(C)C` [Compound 242, N{alpha-4}-(3-methylbutanoyl)-N{epsilon-7}-[2-(2-{2-[2-(2-{2-[(4S)-4-carboxy-4-(17-carboxyheptadecanamido)butanamido]ethoxy}ethoxy)acetamido]ethoxy}ethoxy)acetamido]-[4A,7K,9E,10A,14A,18Q,22V,28Y,30W,31L]hPYY (4-36)], the Ki came out at 0.81 nM.
